Like-named read-outs stand apart in the source and are kept apart here.

The results in this text go back to patent US11596639B2, “Substituted indole Mcl-1 inhibitors” (Vanderbilt University, priority 2016, dated 2023).

One experiment addresses Mcl-1 (Homo sapiens (Human), UniProt Q07820). Briefly: Fluorescence polarization anisotropy (FPA) competition assay, FITC-Bak or FITC-Bim BH3 peptide. The note with it: read-out: Ki for Inhibition of Mcl-1 by FPA assay. The format is binding.
Experiment [1] concerns H929 human cancer cell lines. The experiment can be described thus: Cellular viability / proliferation (Cell TiterGlo, 72 h). The format is cell-based. The essentials: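 Plating is at 1,000 cells/well in 10% FBS medium; after 24 h, compound is added as a 2-fold series starting at 50 μM with under 1% DMSO.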
(Cellular ATP, detected with luciferase, serves as a proxy for viable cell number.)

The mark [2] stands for this setting: Homo sapiens, NCI-H929, 72 h, read-out: GI50 on cellular proliferation of H929 human cancer cell lines, H929 cells, 72 h, Cell TiterGlo, 10% FBS.

Sequence of Mcl-1 (Q07820 172-327): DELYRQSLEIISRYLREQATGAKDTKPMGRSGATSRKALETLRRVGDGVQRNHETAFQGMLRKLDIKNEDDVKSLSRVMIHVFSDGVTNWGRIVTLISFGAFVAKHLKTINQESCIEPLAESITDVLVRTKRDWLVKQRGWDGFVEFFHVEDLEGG

Regarding `Cc1cc(OCCCc2c3n(c4c(-c5c(C)nn(C)c5C)c(Cl)ccc24)CCCN(c2cc(C(=O)O)c4ccn(CCN5CCOCC5)c4c2)C3=O)cc(C)c1Cl` [Example 31, 6-(8-chloro-11-(3-(4-chloro-3,5-dimethylphenoxy)propyl)-1-oxo-7-(1,3,5-trimethyl-1H-pyrazol-4-yl)-4,5-dihydro-1H-[1,4]diazepino[1,2-a]indol-2(3H)-yl)-1-(2-morpholinoethyl)-1H-indole-4-carboxylic acid], the Ki – broadly, a dissociation constant, usually derived from enzyme kinetics or from competition with a known ligand – on Mcl-1 is under 1 nM. The GI50 in experiment [1] (setting [2]) is 1800 nM.

Turning to `Cc1cc(OCCCc2c3n(c4c(-c5c(C)ncnc5C)c(Cl)ccc24)CCCN(c2cccc4cc(C(=O)O)ccc24)C3=O)cc(C)c1Cl` [Example 213, 5-[8-Chloro-11-[3-(4-chloro-3,5-dimethyl-phenoxy)propyl]-7-(4,6-dimethylpyrimidin-5-yl)-1-oxo-4,5-dihydro-3H-[1,4]diazepino[1,2-a]indol-2-yl]naphthalene-2-carboxylic acid], at Mcl-1, the Ki is under 1 nM. Besides, the GI50 in experiment [1] (setting [2]) was under 200 nM.

Regarding `Cc1cc(OCCCc2c3n(c4c(-c5c(C)nn(C)c5C)c(Cl)ccc24)[C@H](C)CN(c2cccc4cc(C(=O)O)n(CC5CC5)c24)C3=O)cc(C)c1Cl` [Example 254, 7-[(4R)-7-chloro-10-[3-(4-chloro-3,5-dimethyl-phenoxy)propyl]-4-methyl-1-oxo-6-(1,3,5-trimethylpyrazol-4-yl)-3,4-dihydropyrazino[1,2-a]indol-2-yl]-1-(cyclopropylmethyl)indole-2-carboxylic acid], the Ki on Mcl-1 is under 1 nM. In addition, the GI50 in experiment [1] (setting [2]) turned out to be 580 nM.

For `Cc1cc(OCCCc2c3n(c4c(-c5c(C)nn(C)c5C)c(Cl)ccc24)[C@H](C)CN(c2cc(OC(F)(F)F)cc4cc(C(=O)O)[nH]c24)C3=O)cc(C)c1Cl` [Example 469, (R)-7-(7-Chloro-10-(3-(4-chloro-3,5-dimethylphenoxy)propyl)-4-methyl-1-oxo-6-(1,3,5-trimethyl-1H-pyrazol-4-yl)-3,4-dihydropyrazino[1,2-a]indol-2(1H)-yl)-5-(trifluoromethoxy)-1H-indole-2-carboxylic acid], the Ki at Mcl-1 came out at 2.2 nM. Moreover, the GI50 in experiment [1] (setting [2]) is 3300 nM.

As to `Cc1cc(OCCCc2c3n(c4c(-c5c(C)ncnc5C)c(Cl)ccc24)[C@H](C)CN(c2cccc4c2cc(C(=O)O)n4C)C3=O)cc(C)c1Cl` [Example 210, 4-[(4R)-7-chloro-10-[3-(4-chloro-3,5-dimethyl-phenoxy)propyl]-6-(4,6-dimethylpyrimidin-5-yl)-4-methyl-1-oxo-3,4-dihydropyrazino[1,2-a]indol-2-yl]-1-methyl-indole-2-carboxylic acid], the Ki on Mcl-1 is 1.3 nM. Moreover, in experiment [1] (setting [2]), the GI50 came to 1500 nM.

With `Cc1cc(OCCCc2c3n(c4c(-c5c(C)nn(C)c5C)c(Cl)ccc24)[C@H](C)CN(c2cn(C)c4cc(F)c(C(=O)O)cc24)C3=O)cc(C)c1Cl` [Example 348, (P, R)-3-(7-Chloro-10-(3-(4-chloro-3,5-dimethylphenoxy)propyl)-4-methyl-1-oxo-6-(1,3,5-trimethyl-1H-pyrazol-4-yl)-3,4-dihydropyrazino[1,2-a]indol-2(1H)-yl)-6-fluoro-1-methyl-1H-indole-5-carboxylic acid], the inhibitory constant (Ki) at Mcl-1 is 1.8 nM. For the same molecule, in experiment [1] (H929 cells, 72 h, Cell TiterGlo, 10% FBS, read-out: GI50 on cellular proliferation of H929 human cancer cell lines), the GI50 amounted to 1300 nM.

For `Cc1cc(OCCCc2c3n(c4c(-c5c(C)nn(CC6CCOCC6)c5C)c(Cl)ccc24)[C@H](C)CN(c2cn(C)c4cc(C(=O)O)ccc24)C3=O)cc(C)c1Cl` [Example 308, (R)-3-(7-chloro-10-(3-(4-chloro-3,5-dimethylphenoxy)propyl)-6-(3,5-dimethyl-1-((tetrahydro-2H-pyran-4-yl)methyl)-1H-pyrazol-4-yl)-4-methyl-1-oxo-3,4-dihydropyrazino[1,2-a]indol-2(1H)-yl)-1-methyl-1H-indole-6-carboxylic acid], the Ki on Mcl-1 was under 1 nM. Also, the GI50 in experiment [1] (setting [2]) was 410 nM.

On to `Cc1cc(OCCCc2c3n(c4c(-c5c(C)nn(C)c5C)c(Cl)ccc24)[C@H](C)CN(c2cccc4c2cc(C(=O)O)n4Cc2ccccn2)C3=O)cc(C)c1Cl` [Example 352, (R)-4-(7-chloro-10-(3-(4-chloro-3,5-dimethylphenoxy)propyl)-4-methyl-1-oxo-6-(1,3,5-trimethyl-1H-pyrazol-4-yl)-3,4-dihydropyrazino[1,2-a]indol-2(1H)-yl)-1-(pyridin-2-ylmethyl)-1H-indole-2-carboxylic acid], for which the inhibition constant (Ki) at Mcl-1 is 2.8 nM. The GI50 in experiment [1] (setting [2]) is 5100 nM.

As to `Cc1cc(OCCCc2c3n(c4c(-c5c(C)nn(C)c5C)c(Cl)ccc24)[C@H](C)CN(c2cccc4ccn(C)c24)C3=O)cc(C)c1Cl` [Example 234, (R)-7-Chloro-10-(3-(4-chloro-3,5-dimethylphenoxy)propyl)-4-methyl-2-(1-methyl-1H-indol-7-yl)-6-(1,3,5-trimethyl-1H-pyrazol-4-yl)-3,4-dihydropyrazino[1,2-a]indol-1(2H)-one], the Ki at Mcl-1 is under 1 nM. The GI50 in experiment [1] (setting [2]) came to 1600 nM.

For `Cc1cc(OCCCc2c3n(c4c(-c5c(C)nn(C)c5C)c(Cl)ccc24)CCCN(c2nc(C(=O)O)n[nH]2)C3=O)cc(C)c1Cl` [Example 37, 5-(8-Chloro-11-(3-(4-chloro-3,5-dimethylphenoxy)propyl)-1-oxo-7-(1,3,5-trimethyl-1H-pyrazol-4-yl)-4,5-dihydro-1H-[1,4]diazepino[1,2-a]indol-2(3H)-yl)-1H-1,2,4-triazole-3-carboxylic acid], the Ki at Mcl-1 worked out at 3 nM. Further, the GI50 in experiment [1] (setting [2]) turned out to be 1800 nM.

Regarding `Cc1cc(OCCCc2c3n(c4c(-c5c(C)nn(C)c5C)c(Cl)ccc24)CCCN(c2cc(C(=O)O)cc4c2cnn4C)C3=O)cc(C)c1Cl` [Example 45, 4-[8-chloro-11-[3-(4-chloro-3,5-dimethyl-phenoxy)propyl]-1-oxo-7-(1,3,5-trimethylpyrazol-4-yl)-4,5-dihydro-3H-[1,4]diazepino[1,2-a]indol-2-yl]-1-methyl-indazole-6-carboxylic acid], the Ki at Mcl-1 is 1.7 nM. For the same molecule, the GI50 in experiment [1] (setting [2]) was 3800 nM.

Regarding `Cc1cc(OCCCc2c3n(c4c(-c5c(C)nn(C)c5C)c(Cl)ccc24)[C@H](C)CN(c2cn(C)c4cc(C#N)ccc24)C3=O)cc(C)c1Cl` [Example 206, (R)-3-(7-Chloro-10-(3-(4-chloro-3,5-dimethylphenoxy)propyl)-4-methyl-1-oxo-6-(1,3,5-trimethyl-1H-pyrazol-4-yl)-3,4-dihydropyrazino[1,2-a]indol-2(1H)-yl)-1-methyl-1H-indole-6-carbonitrile], the Ki on Mcl-1 was under 1 nM. Further, the GI50 in experiment [1] (setting [2]) was 3200 nM.

On to `Cc1cc(OCCCc2c3n(c4c(-c5c(C)nn(C)c5C)c(Cl)ccc24)[C@H](C)CN(c2ccc4oc(C(=O)O)cc4c2)C3=O)cc(C)c1Cl` [Example 196, (R)-5-(7-Chloro-10-(3-(4-chloro-3,5-dimethylphenoxy)propyl)-4-methyl-1-oxo-6-(1,3,5-trimethyl-1H-pyrazol-4-yl)-3,4-dihydropyrazino[1,2-a]indol-2(1H)-yl)benzofuran-2-carboxylic acid], for which the Ki at Mcl-1 was under 1 nM. Besides, the GI50 in experiment [1] (setting [2]) stood at 3400 nM.

As for `Cc1cc(N2C[C@@H](C)n3c(c(CCCOc4cc(C)c(Cl)c(C)c4)c4ccc(Cl)c(-c5c(C)nn(C)c5C)c43)C2=O)c2c(c1)c(C(=O)O)cn2C` [Example 183, (R)-7-(7-chloro-10-(3-(4-chloro-3,5-dimethylphenoxy)propyl)-4-methyl-1-oxo-6-(1,3,5-trimethyl-1H-pyrazol-4-yl)-3,4-dihydropyrazino[1,2-a]indol-2(1H)-yl)-1,5-dimethyl-1H-indole-3-carboxylic acid], the Ki at Mcl-1 is under 1 nM. The GI50 in experiment [1] (read-out: GI50 on cellular proliferation of H929 human cancer cell lines, H929 cells, 72 h, Cell TiterGlo, 10% FBS) amounted to 360 nM.

Regarding `CC(=O)N1CCN(Cc2nc(C)c(-c3c(Cl)ccc4c(CCCOc5cc(C)c(Cl)c(C)c5)c5n(c34)[C@H](C)CN(c3cn(C)c4ccc(C(=O)O)cc34)C5=O)c(C)n2)CC1` [Example 433, (R)-3-(6-(2-((4-Acetylpiperazin-1-yl)methyl)-4,6-dimethylpyrimidin-5-yl)-7-chloro-10-(3-(4-chloro-3,5-dimethylphenoxy)propyl)-4-methyl-1-oxo-3,4-dihydropyrazino[1,2-a]indol-2(1H)-yl)-1-methyl-1H-indole-5-carboxylic acid], at Mcl-1, the Ki was found to be 1.7 nM. Besides, in experiment [1] (setting [2]), the GI50 was 440 nM.

`Cc1nn(C)c(C)c1-c1c(Cl)ccc2c(CCCOc3ccc(Cl)cc3)c3n(c12)[C@H](C)CN(c1cn(C)c2ccc(C(=O)O)cc12)C3=O` [Example 409, (R)-3-(7-Chloro-10-(3-(4-chlorophenoxy)propyl)-4-methyl-1-oxo-6-(1,3,5-trimethyl-1H-pyrazol-4-yl)-3,4-dihydropyrazino[1,2-a]indol-2(1H)-yl)-1-methyl-1H-indole-5-carboxylic acid]: the Ki at Mcl-1 stood at 1.3 nM. The GI50 in experiment [1] (setting [2]) was found to be 2800 nM.

For `Cc1cc(OCCCc2c3n(c4c(-c5c(C)n[nH]c5C)c(Cl)ccc24)CCCN(c2cc(C(=O)O)c4ccn(C)c4c2)C3=O)cc(C)c1Cl` [Example 58, 6-(8-Chloro-11-(3-(4-chloro-3,5-dimethylphenoxy)propyl)-7-(3,5-dimethyl-1H-pyrazol-4-yl)-1-oxo-4,5-dihydro-1H-[1,4]diazepino[1,2-a]indol-2(3H)-yl)-1-methyl-1H-indole-4-carboxylic acid], on Mcl-1, the Ki was under 1 nM. Also, the GI50 in experiment [1] (setting [2]) was 3000 nM.

For `Cc1cc(OCCCc2c3n(c4c(-c5c(C)nn(C)c5C)c(Cl)ccc24)[C@H](C)CN(c2cc4ccc(C(=O)O)cc4n2C)C3=O)cc(C)c1Cl` [Example 180, 2-[(4R)-7-chloro-10-[3-(4-chloro-3,5-dimethyl-phenoxy)propyl]-4-methyl-1-oxo-6-(1,3,5-trimethylpyrazol-4-yl)-3,4-dihydropyrazino[1,2-a]indol-2-yl]-1-methyl-indole-6-carboxylic acid], on Mcl-1, the Ki turned out to be 2.1 nM. The GI50 in experiment [1] (setting [2]) was 1500 nM.
